Results published in publication PMC7427786, “An essential role of acetyl coenzyme A in the catalytic cycle of insect arylalkylamine N-acetyltransferase” (Communications Biology, 2020).

Experiments:
Type in all cases: binding
[1] = target: T1, Dat (dopamine N-acetyltransferase; Dat21-230) (Drosophila melanogaster, UniProt Q94521); experiment: X-ray crystallography, cocrystal; details: substrate pocket
T1 construct: gene speck; truncated Dat residues 21-230 of 240; pGEX-6p3, GST tag cut by PreScission protease; E. coli BL21 (DE3)
T1 sequence (Q94521 56-265): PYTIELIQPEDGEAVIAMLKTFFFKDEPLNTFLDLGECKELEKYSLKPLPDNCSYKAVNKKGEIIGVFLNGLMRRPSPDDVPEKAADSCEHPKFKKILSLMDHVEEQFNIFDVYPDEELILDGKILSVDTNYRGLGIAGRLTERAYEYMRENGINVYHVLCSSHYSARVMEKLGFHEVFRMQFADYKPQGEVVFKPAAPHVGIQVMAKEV

[2] = target: T1, Dat (dopamine N-acetyltransferase; Dat21-230); experiment: isothermal titration calorimetry
Description: isothermal titration calorimetry on Dat (dopamine N-acetyltransferase; Dat21-230)

[3] = target: T1, Dat (dopamine N-acetyltransferase; Dat21-230); experiment: X-ray crystallography (cocrystallization of Dat, Ac-CoA and PEA); NMR HSQC; details: ternary complex with CoA; product formed in the crystal

`CC(=O)NCCc1c[nH]c2ccccc12` [Ac-TRYP] was tested, and the “X-ray crystallography, cocrystal” value ([1]; ternary complex with CoA, 1.36 Å) was “Dat/CoA/Ac-TRYP (representing the enzyme-products complex)”.

In the case of `CC(C)(COP(=O)(O)OP(=O)(O)OC[C@H]1O[C@@H](n2cnc3c(N)ncnc32)[C@H](O)[C@@H]1OP(=O)(O)O)[C@@H](O)C(=O)NCCC(=O)NCCS` [CoA], the Kd [2] is reported as 153 ± 26.5 µM.

In the case of `OCCc1c[nH]c2ccccc12` [tryptophol], the “X-ray crystallography, cocrystal” value ([1]; ternary complex with Ac-CoA, dead-end analog of tryptamine, 1.28 Å) is reported as “Dat/Ac-CoA/tryptophol (mimicking the enzyme-substrates complex)”.

Work on `CC(=O)SCCNC(=O)CCNC(=O)[C@H](O)C(C)(C)COP(=O)(O)OP(=O)(O)OC[C@H]1O[C@@H](n2cnc3c(N)ncnc32)[C@H](O)[C@@H]1OP(=O)(O)O` [Ac-CoA] yielded a Kd [2] of 5.51 ± 1.92 µM.

In the case of `CC(=O)NCCc1ccccc1` [Ac-PEA], the “X-ray crystallography (cocrystallization of Dat, Ac-CoA and PEA); NMR HSQC” value [3] is reported as “crystals of Dat with two products, CoA and Ac-PEA (PDB code: 5GI7)”.
